Measurements: the NIST ThermoML archive (doi:10.1021/je900732r)
Numbers after ± are expanded uncertainties.

Test: mn = molality of the nth substance listed, in mol/kg
Conditions: 101 kPa, Liquid; for speed of sound: Pulse-echo method

[Ni+2].[O-][Cl+3]([O-])([O-])[O-].[O-][Cl+3]([O-])([O-])[O-] [nickel perchlorate] + CO
Conditions | mass density, 283.15 K [kg/m3] | mass density, 288.15 K [kg/m3] | mass density, 293.15 K [kg/m3] | mass density, 298.15 K [kg/m3] | mass density, 303.15 K [kg/m3] | mass density, 308.15 K [kg/m3] | mass density, 313.15 K [kg/m3] | speed of sound, 298.15 K [m/s]
m1 = 0.04976 | 810.894 ± 0.47 | 806.238 ± 0.48 | 801.564 ± 0.48 | 796.875 ± 0.49 | 792.174 ± 0.5 | 787.453 ± 0.51 | 782.702 ± 0.51 | 1108.7 ± 0.6
m1 = 0.06138 | 813.322 ± 0.47 | 808.669 ± 0.47 | 804 ± 0.48 | 799.318 ± 0.49 | 794.619 ± 0.49 | 789.897 ± 0.5 | 785.142 ± 0.51 | 1110.3 ± 0.6
m1 = 0.07317 | 815.812 ± 0.46 | 811.165 ± 0.47 | 806.497 ± 0.48 | 801.821 ± 0.48 | 797.126 ± 0.49 | 792.41 ± 0.5 | 787.658 ± 0.51 | 1111.9 ± 0.6
m1 = 0.08448 | 818.152 ± 0.46 | 813.508 ± 0.47 | 808.845 ± 0.47 | 804.169 ± 0.48 | 799.474 ± 0.49 | 794.767 ± 0.49 | 790.033 ± 0.5 | 1113.4 ± 0.6
m1 = 0.09669 | 820.699 ± 0.46 | 816.056 ± 0.47 | 811.401 ± 0.47 | 806.731 ± 0.48 | 802.044 ± 0.49 | 797.34 ± 0.49 | 792.608 ± 0.5 | 1115.2 ± 0.61
m1 = 0.1085 | 823.23 ± 0.46 | 818.592 ± 0.46 | 813.937 ± 0.47 | 809.271 ± 0.47 | 804.589 ± 0.48 | 799.878 ± 0.49 | 795.147 ± 0.5 | 1116.7 ± 0.61
m1 = 0.1208 | 825.801 ± 0.45 | 821.168 ± 0.46 | 816.518 ± 0.47 | 811.856 ± 0.47 | 807.179 ± 0.48 | 802.481 ± 0.48 | 797.759 ± 0.49 | 1118.3 ± 0.61
m1 = 0.1447 | 830.859 ± 0.45 | 826.231 ± 0.45 | 821.586 ± 0.46 | 816.93 ± 0.47 | 812.261 ± 0.47 | 807.568 ± 0.48 | 802.853 ± 0.49 | 1121.7 ± 0.62
m1 = 0.1676 | 835.774 ± 0.44 | 831.151 ± 0.45 | 826.515 ± 0.45 | 821.865 ± 0.46 | 817.198 ± 0.47 | 812.514 ± 0.47 | 807.813 ± 0.48 | 1124.8 ± 0.62
m1 = 0.1901 | 840.657 ± 0.44 | 836.042 ± 0.44 | 831.412 ± 0.45 | 826.771 ± 0.46 | 822.114 ± 0.46 | 817.44 ± 0.47 | 812.739 ± 0.47 | 1127.8 ± 0.62
m1 = 0.2123 | 845.469 ± 0.43 | 840.858 ± 0.44 | 836.233 ± 0.44 | 831.599 ± 0.45 | 826.95 ± 0.46 | 822.28 ± 0.46 | 817.588 ± 0.47 | 1130.6 ± 0.63
m1 = 0.2356 | 850.636 ± 0.43 | 846.033 ± 0.43 | 841.413 ± 0.44 | 836.783 ± 0.45 | 832.14 ± 0.45 | 827.476 ± 0.46 | 822.785 ± 0.46 | 1134.2 ± 0.63

[Co+2].[O-][Cl+3]([O-])([O-])[O-].[O-][Cl+3]([O-])([O-])[O-] [cobalt(II) perchlorate] + CO
Conditions | mass density, 283.15 K [kg/m3] | mass density, 288.15 K [kg/m3] | mass density, 293.15 K [kg/m3] | mass density, 298.15 K [kg/m3] | mass density, 303.15 K [kg/m3] | mass density, 308.15 K [kg/m3] | mass density, 313.15 K [kg/m3] | speed of sound, 298.15 K [m/s]
m1 = 0.04954 | 810.666 ± 0.47 | 806.009 ± 0.48 | 801.334 ± 0.48 | 796.648 ± 0.49 | 791.945 ± 0.5 | 787.216 ± 0.5 | 782.455 ± 0.51 | 1108.2 ± 0.6
m1 = 0.0652 | 813.871 ± 0.47 | 809.222 ± 0.47 | 804.551 ± 0.48 | 799.871 ± 0.48 | 795.174 ± 0.49 | 790.456 ± 0.5 | 785.712 ± 0.51 | 1110.5 ± 0.6
m1 = 0.08043 | 816.972 ± 0.46 | 812.325 ± 0.47 | 807.661 ± 0.47 | 802.983 ± 0.48 | 798.285 ± 0.49 | 793.568 ± 0.49 | 788.838 ± 0.5 | 1112.6 ± 0.6
m1 = 0.09601 | 820.184 ± 0.46 | 815.542 ± 0.46 | 810.881 ± 0.47 | 806.21 ± 0.48 | 801.517 ± 0.48 | 796.812 ± 0.49 | 792.084 ± 0.5 | 1114.6 ± 0.61
m1 = 0.1106 | 823.205 ± 0.45 | 818.568 ± 0.46 | 813.913 ± 0.47 | 809.247 ± 0.47 | 804.564 ± 0.48 | 799.855 ± 0.49 | 795.128 ± 0.49 | 1116.9 ± 0.61
m1 = 0.1255 | 826.259 ± 0.45 | 821.625 ± 0.46 | 816.975 ± 0.46 | 812.313 ± 0.47 | 807.634 ± 0.48 | 802.929 ± 0.48 | 798.211 ± 0.49 | 1118.6 ± 0.61
m1 = 0.157 | 832.839 ± 0.44 | 828.214 ± 0.45 | 823.572 ± 0.46 | 818.918 ± 0.46 | 814.251 ± 0.47 | 809.557 ± 0.48 | 804.844 ± 0.48 | 1122.7 ± 0.62
m1 = 0.1876 | 839.345 ± 0.44 | 834.726 ± 0.44 | 830.096 ± 0.45 | 825.452 ± 0.46 | 820.793 ± 0.46 | 816.116 ± 0.47 | 811.415 ± 0.47 | 1127 ± 0.62
m1 = 0.2171 | 845.636 ± 0.43 | 841.028 ± 0.43 | 836.402 ± 0.44 | 831.765 ± 0.45 | 827.115 ± 0.45 | 822.438 ± 0.46 | 817.746 ± 0.47 | 1131 ± 0.63
m1 = 0.2464 | 851.879 ± 0.42 | 847.275 ± 0.43 | 842.656 ± 0.43 | 838.024 ± 0.44 | 833.388 ± 0.45 | 828.73 ± 0.45 | 824.046 ± 0.46 | 1135 ± 0.63
m1 = 0.2747 | 858.053 ± 0.42 | 853.458 ± 0.42 | 848.847 ± 0.43 | 844.226 ± 0.43 | 839.592 ± 0.44 | 834.938 ± 0.45 | 830.254 ± 0.45 | 1138.9 ± 0.64
m1 = 0.3036 | 864.446 ± 0.41 | 859.854 ± 0.41 | 855.253 ± 0.42 | 850.642 ± 0.43 | 846.019 ± 0.43 | 841.375 ± 0.44 | 836.709 ± 0.45 | 1143 ± 0.65
